According to PMC10353390, “Biological and Structural Analyses of New Potent Allosteric Inhibitors of HIV-1 Integrase” (Antimicrobial Agents and Chemotherapy, 2023):
Like-named read-outs stand apart in the source and are kept apart here.

Legend:
[1] = test system: NL4-3 HIV-1 strain; assay: Multiple-round infection assay in MT4 cells, NL4-3; format: cell-based; conditions: MT4 cells
[2] = Cytotoxicity assay in MT4 cells; format: cell-based; conditions: human, MT4 cells (proliferating human T-cell line), CellTiter-Glo
Source text: Growth inhibition was monitored in a proliferating human T-cell line (MT4) with different concentrations of compounds, using the CellTiter-Glo luminescent reagent (Promega), as previously described ([12]).

[3] = test system: lab-adapted and clinical HIV-1 isolates; assay: Infection assays in primary T CD4+ lymphocytes; format: cell-based; conditions: Human immunodeficiency virus 1, Lymphocyte
[4] = test system: VSV-G-pseudotyped NL4-3Δenv-luc; assay: microbe, parasite or virus in culture; format: cell-based, HIV-1
[5] = test system: recombinant NL4-3 viruses with polymorphisms at IN positions 124 and 125; assay: Multiple-round infection of MT4 cells with recombinant NL4-3 viruses polymorphic at IN positions 124 and 125; format: cell-based, HIV-1
How it was run: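 MT4 cells (10^6/mL) infected with NL4-3 carrying IN 124/125 polymorphisms (15 combinations) at MOI 0.001 for 2 h with compound present. Viability read by CellTiter-Glo luminescence; EC50 expressed as fold change versus wild-type NL4-3 (Thr124/Thr125).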

[6] = test system: primary HIV-1 isolates with polymorphisms at IN positions 124 and 125; assay: Multiple-round infection of MT4 cells with primary HIV-1 isolates polymorphic at IN positions 124 and 125; format: cell-based; conditions: primary isolate
How it was run: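 Exponentially growing MT4 cells at 10^6/mL infected for 2 h at MOI 0.001 in the presence of varying compound concentrations. Cell viability quantified by CellTiter-Glo luminescence.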

[7] = test system: NL4-3 HIV-1 with INLAI-selected IN single point mutations; format: cell-based
[8] = test system: NL4-3 HIV-1 clone; assay: Combination antiviral activity assay (MacSynergy II) in NL4-3-infected MT4 cells; format: cell-based
Source text: To this end, we evaluated the activity of BDM-2 in the presence of approved antiretroviral drugs against NL4-3 HIV-1 clone replicating on MT4 cells. Examples of MacSynergy plots obtained for the combinations of BDM-2 with the protease inhibitor lopinavir (LPV) or the INSTI EVG are shown in Fig. 3A and B, respectively. The results indicated no antagonism of ascending concentrations of BDM-2 with the antiviral activity of LPV or EVG and vice versa. Next, we extended these analyses to a panel of 16 FDA-approved antiretroviral drugs, including 3 protease inhibitors, 6 NRTIs, 4 NNRTIs, and 3 INSTIs.
BDM-2, as lead compound representative of the series, was used in these experiments. Combination studies were performed in MT4 cells infected with NL4-3, as previously described ([3]). Multiple concentrations of BDM-2 were tested in checkerboard pattern in the presence and absence of dilutions of 16 representative approved anti-HIV drugs of different classes. Compound combinations were analyzed by calculations to quantify deviation from additivity at the 50% level. Data were analyzed as described by Prichard and Shipman by using the MacSynergy II program ([54]). Synergy volumes in the range of −25 to +25 define additivity; −50 minor antagonism, +50 minor synergy, and up to 100 and >100 moderate and strong synergy, respectively. Combinations of RBV with AZT or ddI were used as controls for antagonism and synergy, respectively.

[9] = target: CCD of HIV-1 IN and IBD of LEDGF/p75 (Human immunodeficiency virus type 1 group M subtype B, UniProt P12497); assay: biochemical

Q: Which EC90 ([1]; Human immunodeficiency virus 1, NL43, multiple-round infection, from dose response curves, read-out: EC90 NL4-3) does the source give for `Cc1ccc(C2CC2)c(-c2ccc3c(c2)CCCO3)c1[C@H](OC(C)(C)C)C(=O)O` [BDM-2] here?
A: 13 ± 5.1 nM

Q: And the EC50 ([1]; Human immunodeficiency virus 1, NL43, multiple-round infection, mean ± SD, n > 5, read-out: EC50 NL4-3)?
A: 8.7 ± 2.8 nM

Q: What about the “Selectivity index CC50/EC50 NL4-3” value [1] of the same molecule?
A: 7,931

Q: And the CC50 [2]?
A: 69000 ± 8000 nM

Q: What about the EC50 ([3]; read-out: EC50 33913N (B)) of the same molecule?
A: 4.2 ± 1.6 nM

Q: And the EC50 ([3]; read-out: EC50 HXB2 (B))?
A: 3.4 ± 1 nM

Q: And the EC50 ([3]; read-out: EC50 KER2008 (A))?
A: 8.1 ± 1.3 nM

Q: And the EC50 ([3]; read-out: EC50 NL4-3 (B))?
A: 8.3 ± 4.3 nM

Q: What about the EC50 ([3]; read-out: EC50 NP1525 (CRF01_AE)) of the same molecule?
A: 11 ± 5 nM

Q: What about the EC50 ([3]; read-out: EC50 NP1538 (B)) of the same molecule?
A: 13 ± 6 nM

Q: And the “EC50 ratio (single/multiple-round infection)” value [4]?
A: 161

Q: And the EC50 ([4]; Human immunodeficiency virus 1, NL43, MT4, read-out: EC50 in single-round infection)?
A: 1400 ± 300 nM

Q: And the “Fold change in EC50 relative to parental NL4-3, AA” value ([5]; recombinant NL4-3, IN 124/125 AA)?
A: 1

Q: And the “Fold change in EC50 relative to parental NL4-3, AM” value ([5]; recombinant NL4-3, IN 124/125 AM)?
A: 0.4

Q: What about the “Fold change in EC50 relative to parental NL4-3, AT” value ([5]; recombinant NL4-3, IN 124/125 AT) of the same molecule?
A: 1

Q: What about the “Fold change in EC50 relative to parental NL4-3, AV” value ([5]; recombinant NL4-3, IN 124/125 AV) of the same molecule?
A: 2

Q: And the “Fold change in EC50 relative to parental NL4-3, GA” value ([5]; recombinant NL4-3, IN 124/125 GA)?
A: 1

Q: What about the “Fold change in EC50 relative to parental NL4-3, GT” value ([5]; recombinant NL4-3, IN 124/125 GT) of the same molecule?
A: 1

Q: What about the “Fold change in EC50 relative to parental NL4-3, NA” value ([5]; recombinant NL4-3, IN 124/125 NA) of the same molecule?
A: 1

Q: And the “Fold change in EC50 relative to parental NL4-3, NT” value ([5]; recombinant NL4-3, IN 124/125 NT)?
A: 1

Q: And the “Fold change in EC50 relative to parental NL4-3, NV” value ([5]; recombinant NL4-3, IN 124/125 NV)?
A: 1

Q: And the “Fold change in EC50 relative to parental NL4-3, SA” value ([5]; recombinant NL4-3, IN 124/125 SA)?
A: 1

Q: What about the “Fold change in EC50 relative to parental NL4-3, ST” value ([5]; recombinant NL4-3, IN 124/125 ST) of the same molecule?
A: 1

Q: What about the “Fold change in EC50 relative to parental NL4-3, TA” value ([5]; recombinant NL4-3, IN 124/125 TA) of the same molecule?
A: 1

Q: What about the “Fold change in EC50 relative to parental NL4-3, TM” value ([5]; recombinant NL4-3, IN 124/125 TM) of the same molecule?
A: 0.3

Q: What about the “Fold change in EC50 relative to parental NL4-3, TV” value ([5]; recombinant NL4-3, IN 124/125 TV) of the same molecule?
A: 1

Q: And the “Fold change in EC50 relative to parental NL4-3, CAM2BBY (CRF02)” value ([6]; IN 124/125 AA)?
A: 2

Q: And the “Fold change in EC50 relative to parental NL4-3, E0836M4 (D)” value ([6]; IN 124/125 AA)?
A: 1

Q: What about the “Fold change in EC50 relative to parental NL4-3, KER2008 (A)” value ([6]; IN 124/125 AA) of the same molecule?
A: 1

Q: And the “Fold change in EC50 relative to parental NL4-3, NP1525 (CRF01)” value ([6]; IN 124/125 AA)?
A: 1

Q: What about the “Fold change in EC50 relative to parental NL4-3, NP1695 (CRF02)” value ([6]; IN 124/125 AA) of the same molecule?
A: 2

Q: And the “Fold change in EC50 relative to parental NL4-3, TZA125 (C)” value ([6]; IN 124/125 AA)?
A: 0.4

Q: And the “Fold change in EC50 relative to parental NL4-3, KSM4030 (A)” value ([6]; IN 124/125 GA)?
A: 2

Q: What about the “Fold change in EC50 relative to parental NL4-3, vGA (C)” value ([6]; IN 124/125 GA) of the same molecule?
A: 4

Q: And the “Fold change in EC50 relative to parental NL4-3, 99ET14 (C)” value ([6]; IN 124/125 NA)?
A: 1

Q: And the “Fold change in EC50 relative to parental NL4-3, NP1538 (B)” value ([6]; IN 124/125 NA)?
A: 2

Q: What about the “Fold change in EC50 relative to parental NL4-3, vNA_1 (B)” value ([6]; IN 124/125 NA) of the same molecule?
A: 2

Q: And the “Fold change in EC50 relative to parental NL4-3, vNA_2 (CRF02)” value ([6]; IN 124/125 NA)?
A: 3

Q: What about the “Fold change in EC50 relative to parental NL4-3, vNV (B)” value ([6]; IN 124/125 NV) of the same molecule?
A: 2

Q: And the “Fold change in EC50 relative to parental NL4-3, vSA_1 (B)” value ([6]; IN 124/125 SA)?
A: 3

Q: What about the “Fold change in EC50 relative to parental NL4-3, vSA_2 (CRF02)” value ([6]; IN 124/125 SA) of the same molecule?
A: 3

Q: What about the “Fold change in EC50 relative to parental NL4-3, vTA_1 (B)” value ([6]; IN 124/125 TA) of the same molecule?
A: 2

Q: What about the “Fold change in EC50 relative to parental NL4-3, vTA_2 (CRF02)” value ([6]; IN 124/125 TA) of the same molecule?
A: 1

Q: And the “EC50 fold change compared to wild type NL4-3, A128T” value [7]?
A: 4

Q: What about the “EC50 fold change compared to wild type NL4-3, H171Q” value [7] of the same molecule?
A: 3

Q: And the “EC50 fold change compared to wild type NL4-3, N222K” value [7]?
A: 2

Q: And the “EC50 fold change compared to wild type NL4-3, T174I” value [7]?
A: 253

Q: And the “EC50 fold change compared to wild type NL4-3, Y99H” value [7]?
A: 4

Q: What about the “interaction with a panel of 16 FDA-approved antiretroviral drugs” value ([8]; 3 protease inhibitors, 6 NRTIs, 4 NNRTIs, 3 INSTIs, MacSynergy) of the same molecule?
A: no antagonism

Q: And the “interaction with lopinavir (LPV)” value ([8]; MacSynergy synergy volume)?
A: strong synergy (up to 100 and >100 moderate and strong synergy, respectively)

Q: And the “interaction with some of the remaining drugs, including the INSTIs” value ([8]; MacSynergy synergy volume)?
A: moderate synergy (up to 100 and >100 moderate and strong synergy, respectively)

Q: And the IC50 [9]?
A: 150 ± 30 nM
